Literature values in PubChem BioAssay AID1259409 (Chemical Carcinogenesis Research Information System (CCRIS), 2018).
“And” between values parts separate entries of the source, which are not always exact repeats. Identical values can stand only once.

Tested on: rodent chemically induced tumor inhibition, incidence and multiplicity
Experiment: CCRIS tumor inhibitor studies
Conditions: for outcome: Carcinogen: DIMETHYLBENZ[A]ANTHRACENE, Strain/Sex: SENCAR/FEMALE, Dose [Carcinogen]: 10 NMOL ONCE

C[C@]12CCC(=O)C=C1CC[C@@H]1[C@@H]2CC[C@@]2(C)[C@H]1CC[C@]2(C)O
tumour outcome (control, treated, inhibition, significance) (Carcinogen: N-BIS(2-HYDROXYPROPYL)NITROSAMINE, 53609-64-6, Dose [Inhibitor]: 0.03% IN DIET FOR 28 WK BEGINNING POST CARCINOGEN DOSE (STUDY DURATION: 30 WK), Route [Inhibitor]: ORAL, Species: RAT, Strain/Sex: WISTAR/MALE, Target Tissue: Type of Lesion: THYROID: ADENOMA, Dose [Carcinogen]: 210 MG/100 G 1/WK FOR 2 WK, Promoter: NONE USED): 9/13 (69%), 2/15 (13%), 81%, p<0.05 | tumour outcome (control, treated, inhibition, significance) (Carcinogen: N-BIS(2-HYDROXYPROPYL)NITROSAMINE, 53609-64-6, Dose [Inhibitor]: 0.03% IN DIET FOR 28 WK BEGINNING POST CARCINOGEN DOSE (STUDY DURATION: 30 WK), Route [Inhibitor]: ORAL, Species: RAT, Strain/Sex: WISTAR/MALE, Target Tissue: Type of Lesion: THYROID: CARCINOMA, Dose [Carcinogen]: 210 MG/100 G 1/WK FOR 2 WK, Promoter: NONE USED): 2/13 (15%), 2/15 (13%), 13%, not calculated | tumour outcome (control, treated, inhibition, significance) (Carcinogen: N-BIS(2-HYDROXYPROPYL)NITROSAMINE, 53609-64-6, Dose [Inhibitor]: 0.15% IN DIET FOR 28 WK BEGINNING POST CARCINOGEN DOSE (STUDY DURATION: 30 WK), Route [Inhibitor]: ORAL, Species: RAT, Strain/Sex: WISTAR/MALE, Target Tissue: Type of Lesion: THYROID: ADENOMA, Dose [Carcinogen]: 210 MG/100 G 1/WK FOR 2 WK, Promoter: NONE USED): 9/13 (69%), 0/15 (0%), 100%, p<0.05

COc1cc(C2OCC3C(c4ccc5c(c4)OCO5)OCC23)ccc1O (stereo not drawn)
tumour outcome (control, treated, inhibition, significance) (Carcinogen: 7,12-DIMETHYLBENZ[A]ANTHRACENE, 57-97-6, Dose [Inhibitor]: 0, 85 NMOL IN 0.1 ML ACETONE 2/WK FOR 20 WK APPLIED 1 HR PRIOR TO EACH PROMOTER DOSE (STUDY DURATION: 20 WK), Route [Inhibitor]: DERMAL, Species: MOUSE, Strain/Sex: ICR/FEMALE, Target Tissue: Type of Lesion: SKIN: PAPILLOMA, Dose [Carcinogen]: 100 UG IN 0.1 ML ACETONE ONCE, Promoter: 12-O-TETRADECANOYLPHORBOL-13-ACETATE, 16561-29-8): 100%, 80%, 20%, not calculated

CC1(C)CC[C@]2(CO)CC[C@]3(C)C(=CC[C@@H]4[C@@]5(C)CC[C@H](O)[C@@](C)(CO)[C@@H]5CC[C@]43C)[C@@H]2C1
tumour outcome (control, treated, inhibition, significance) (Carcinogen: 7,12-DIMETHYLBENZ[A]ANTHRACENE, 57-97-6, Dose [Inhibitor]: 81 NMOL IN 100 µL ACETONE/DMSO (99:1) APPLIED 40 MIN PRIOR TO EACH PROMOTER DOSE (STUDY DURATION: 18 WK), Route [Inhibitor]: DERMAL, Species: MOUSE, Strain/Sex: ICR, Target Tissue: Type of Lesion: SKIN: CARCINOMA, Dose [Carcinogen]: 100 UG ONCE, Promoter: 12-O-TETRADECANOYLPHORBOL-13-ACETATE, 16561-29-8): 100%, 40%, 60%, not calculated

CCC[Se]C#N
tumour outcome (control, treated, inhibition, significance) (Carcinogen: 7,12-DIMETHYLBENZ[A]ANTHRACENE, 57-97-6, Dose [Inhibitor]: 0.1, 2 PPM (SELENIUM) IN DIET FOR 3 WK BEGINNING 2 WK PRIOR TO CARCINOGEN DOSE (STUDY DURATION: 25 WK), Route [Inhibitor]: ORAL, Species: RAT, Strain/Sex: SPRAGUE-DAWLEY/FEMALE, Target Tissue: Type of Lesion: MAMMARY GLAND: TUMOR, Dose [Carcinogen]: 10 MG ONCE, Promoter: NONE USED): 25/30 (83%), 13/30 (43%), 48%, p<0.05

Cc1cc2cc3ccc4cccc5ccc(c2oc1=O)c3c45
outcome (57-97-6, Dose [Inhibitor]: 0, 200 NMOL IN ACETONE ONCE 5 MIN PRIOR TO CARCINOGEN DOSE (STUDY DURATION: 14 WK), Route [Inhibitor]: DERMAL, Species: MOUSE, Target Tissue: Type of Lesion: SKIN: PAPILLOMA, Promoter: 12-O-TETRADECANOYLPHORBOL-13-ACETATE, 16561-29-8): 8.9, 2.8, 69%, p<0.05 | outcome (57-97-6, Dose [Inhibitor]: 0, 200 NMOL IN ACETONE ONCE 24 HR PRIOR TO CARCINOGEN DOSE (STUDY DURATION: 14 WK), Route [Inhibitor]: DERMAL, Species: MOUSE, Target Tissue: Type of Lesion: SKIN: PAPILLOMA, Promoter: 12-O-TETRADECANOYLPHORBOL-13-ACETATE, 16561-29-8): 8.9, 2.1, 76%, p<0.05 | outcome (57-97-6, Dose [Inhibitor]: 0, 400 NMOL IN ACETONE ONCE 5 MIN PRIOR TO CARCINOGEN DOSE (STUDY DURATION: 14 WK), Route [Inhibitor]: DERMAL, Species: MOUSE, Target Tissue: Type of Lesion: SKIN: PAPILLOMA, Promoter: 12-O-TETRADECANOYLPHORBOL-13-ACETATE, 16561-29-8): 8.9, 3.3, 63%, p<0.05

N#CO
tumour outcome (control, treated, inhibition, significance) (Carcinogen: 1,2-DIMETHYLHYDRAZINE, 540-73-8, Dose [Inhibitor]: 0.013 MMOL/G IN DIET BEGINNING 1 WK POST LAST CARCINOGEN DOSE (STUDY DURATION: 42 WK), Route [Inhibitor]: ORAL, Species: MOUSE, Strain/Sex: CF-1/FEMALE, Target Tissue: Type of Lesion: LARGE BOWEL: ADENOCARCINOMA, Dose [Carcinogen]: 0.6 MG IN 0.2 ML EDTA SOLUTION (PH 6.5) 2X WK FOR 8 WKS., Promoter: NONE USED): 20%, 0%, 100%, p<0.05 | tumour outcome (control, treated, inhibition, significance) (Carcinogen: 1,2-DIMETHYLHYDRAZINE, 540-73-8, Dose [Inhibitor]: 0.013 MMOL/G IN DIET BEGINNING 1 WK POST LAST CARCINOGEN DOSE (STUDY DURATION: 42 WK), Route [Inhibitor]: ORAL, Species: MOUSE, Strain/Sex: CF-1/FEMALE, Target Tissue: Type of Lesion: LARGE BOWEL: ADENOMA, Dose [Carcinogen]: 0.6 MG IN 0.2 ML EDTA SOLUTION (PH 6.5) 2/WK FOR 8 WK, Promoter: NONE USED): 41%, 18%, 56%, not significant | tumour outcome (control, treated, inhibition, significance) (Carcinogen: 1,2-DIMETHYLHYDRAZINE, 540-73-8, Dose [Inhibitor]: 0.026 MMOL/G IN DIET BEGINNING 1 WK POSE LAST CARCINOGEN DOSE (STUDY DURATION: 42 WK), Route [Inhibitor]: ORAL, Species: MOUSE, Strain/Sex: CF-1/FEMALE, Target Tissue: Type of Lesion: LARGE BOWEL: ADENOMA, Dose [Carcinogen]: 0.6 MG IN 0.2 ML EDTA SOLUTION (PH 6.5) 2/WK FOR 8 WK, Promoter: NONE USED): 41%, 17%, 58%, not significant | tumour outcome (control, treated, inhibition, significance) (Carcinogen: 1,2-DIMETHYLHYDRAZINE, 540-73-8, Dose [Inhibitor]: 0.026 MMOL/G IN DIET BEGINNING 1 WK POST LAST CARCINOGEN DOSE (STUDY DURATION: 42 WK), Route [Inhibitor]: ORAL, Species: MOUSE, Strain/Sex: CF-1/FEMALE, Target Tissue: Type of Lesion: LARGE BOWEL: ADENOCARCINOMA, Dose [Carcinogen]: 0.6 MG IN 0.2 ML EDTA SOLUTION (PH 6.5) 2/WK FOR 8 WK, Promoter: NONE USED): 15%, 6%, 60%, not significant and 20%, 6%, 70%, not significant and 18%, 6%, 67%, not significant | tumour outcome (control, treated, inhibition, significance) (Carcinogen: 1,2-DIMETHYLHYDRAZINE, 540-73-8, Dose [Inhibitor]: 0.026 MMOL/G IN DIET BEGINNING 1 WK POST LAST CARCINOGEN DOSE (STUDY DURATION: 42 WK), Route [Inhibitor]: ORAL, Species: MOUSE, Strain/Sex: CF-1/FEMALE, Target Tissue: Type of Lesion: LARGE BOWEL: ADENOMA, Dose [Carcinogen]: 0.6 MG IN 0.2 ML EDTA SOLUTION (PH 6.5) 2/WK FOR 8 WK, Promoter: NONE USED): 33%, 11%, 67%, not significant and 37%, 14%, 62%, p<0.05 | tumour outcome (control, treated, inhibition, significance) (Carcinogen: 7,12-DIMETHYLBENZ(A)ANTHRACENE, 57-97-6, Dose [Inhibitor]: 0.013 MMOL/G IN DIET BEGINNING 1 WK AFTER CARCINOGEN ADMINISTRATION (STUDY DURATION: 18 WK), Route [Inhibitor]: ORAL, Species: RAT, Strain/Sex: SPRAGUE-DAWLEY/FEMALE, Target Tissue: Type of Lesion: MAMMARY GLAND: TUMOR, Dose [Carcinogen]: 12 MG DMBA IN 1.0 ML OLIVE OIL ONCE, Promoter: NONE USED): 100%, 77%, 23%, p<0.01 | tumour outcome (control, treated, inhibition, significance) (Carcinogen: 7,12-DIMETHYLBENZ(A)ANTHRACENE, 57-97-6, Dose [Inhibitor]: 0.026 MMOL/G IN DIET BEGINNING 1 WK AFTER CARCINOGEN ADMINISTRATION (STUDY DURATION: 16 WK), Route [Inhibitor]: ORAL, Species: RAT, Strain/Sex: SPRAGUE-DAWLEY/FEMALE, Target Tissue: Type of Lesion: MAMMARY GLAND: TUMOR, Dose [Carcinogen]: 12 MG DMBA IN 1.0 ML OLIVE OIL ONCE, Promoter: NONE USED): 100%, 60%, 40%, p<0.001 | tumour outcome (control, treated, inhibition, significance) (Carcinogen: 7,12-DIMETHYLBENZ(A)ANTHRACENE, 57-97-6, Dose [Inhibitor]: 0.026 MMOL/G IN DIET BEGINNING 1 WK AFTER CARCINOGEN ADMINISTRATION (STUDY DURATION: 18 WK), Route [Inhibitor]: ORAL, Species: RAT, Strain/Sex: SPRAGUE-DAWLEY/FEMALE, Target Tissue: Type of Lesion: MAMMARY GLAND: TUMOR, Dose [Carcinogen]: 12 MG DMBA IN 1.0 ML OLIVE OIL ONCE, Promoter: NONE USED): 94%, 63%, 33%, p<0.05 and 100%, 63%, 37%, p<0.01

C/C=C(/C)C(=O)OC1c2c(ccc3ccc(=O)oc23)OC(C)(C)C1OC(=O)/C(C)=C\C (stereo not drawn)
tumour outcome (control, treated, inhibition, significance) (Carcinogen: 7,12-DIMETHYLBENZ[A]ANTHRACENE, 57-97-6, Dose [Inhibitor]: 10 UMOL APPLIED 40 MINUTES PRIOR TO PROMOTER DOSE (STUDY DURATION: 20 WK), Route [Inhibitor]: DERMAL, Species: MOUSE, Strain/Sex: ICR/FEMALE, Target Tissue: Type of Lesion: SKIN: PAPILLOMA, Dose [Carcinogen]: 100 UG ONCE): 100%, 0%, 100%, not calculated
